Laboratory results from PubChem BioAssay (NCI).
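Growth conditions: 96-well plates. Treatment: test compound, 48 hours, 5 concentrations. Analysis: linear interpolation between bracketing concentrations; unreached endpoints set to highest concentration. TGI marks complete inhibition of growth.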

Experiments:
Assay in all cases: NCI tumour cell line growth inhibition, 48 h
SF-539 CNS = tested on: SF-539 CNS
DMS 273 small cell lung = tested on: DMS 273 small cell lung
XF 498 CNS = tested on: XF 498 CNS
NCI-H460 lung = tested on: NCI-H460 lung
A549 NSCLC = tested on: A549 NSCLC
HCT-116 colon = tested on: HCT-116 colon
SNB-75 CNS = tested on: SNB-75 CNS
SK-MEL-5 melanoma = tested on: SK-MEL-5 melanoma
NCI-H23 lung = tested on: NCI-H23 lung
CCRF-CEM leukemia = tested on: CCRF-CEM leukemia
EKVX NSCLC = tested on: EKVX NSCLC
SW-620 colon = tested on: SW-620 colon
HOP-92 NSCLC = tested on: HOP-92 NSCLC
HCC-2998 colon = tested on: HCC-2998 colon
SN12K1 renal = tested on: SN12K1 renal
OVCAR-3 ovarian = tested on: OVCAR-3 ovarian
SK-OV-3 ovarian = tested on: SK-OV-3 ovarian
HT29 colon = tested on: HT29 colon
A498 renal = tested on: A498 renal
UACC-62 melanoma = tested on: UACC-62 melanoma
LOX IMVI melanoma = tested on: LOX IMVI melanoma
OVCAR-8 ovarian = tested on: OVCAR-8 ovarian
K-562 leukemia = tested on: K-562 leukemia
MALME-3M melanoma = tested on: MALME-3M melanoma
UO-31 renal = tested on: UO-31 renal
KM12 colon = tested on: KM12 colon
HOP-18 NSCLC = tested on: HOP-18 NSCLC
NCI-H226 lung = tested on: NCI-H226 lung
MOLT-4 leukemia = tested on: MOLT-4 leukemia
P388 leukemia = tested on: P388 leukemia
SK-MEL-2 melanoma = tested on: SK-MEL-2 melanoma
P388/ADR leukemia = tested on: P388/ADR leukemia
M19-MEL melanoma = tested on: M19-MEL melanoma
NCI/ADR-RES ovarian = tested on: NCI/ADR-RES ovarian
SNB-19 CNS = tested on: SNB-19 CNS
SF-268 CNS = tested on: SF-268 CNS
KM20L2 colon = tested on: KM20L2 colon
HL-60(TB) leukemia = tested on: HL-60(TB) leukemia
IGROV1 ovarian = tested on: IGROV1 ovarian
SF-295 CNS = tested on: SF-295 CNS
SNB-78 CNS = tested on: SNB-78 CNS
OVCAR-4 ovarian = tested on: OVCAR-4 ovarian
RPMI-8226 leukemia = tested on: RPMI-8226 leukemia
UACC-257 melanoma = tested on: UACC-257 melanoma
HCT-15 colon = tested on: HCT-15 colon
NCI-H522 lung = tested on: NCI-H522 lung
DLD-1 colon = tested on: DLD-1 colon
MCF7 breast = tested on: MCF7 breast
COLO 205 colon = tested on: COLO 205 colon
SN12C renal = tested on: SN12C renal
OVCAR-5 ovarian = tested on: OVCAR-5 ovarian
U251 CNS = tested on: U251 CNS
SK-MEL-28 melanoma = tested on: SK-MEL-28 melanoma
HOP-62 NSCLC = tested on: HOP-62 NSCLC
RXF 393 renal = tested on: RXF 393 renal

CCCCCCc1ccc(O)cc1O
TGI (SF-539 CNS): > 100 µM
TGI (DMS 273 small cell lung): > 100 µM
TGI (XF 498 CNS): > 100 µM
TGI (NCI-H460 lung): > 100 µM
TGI (A549 NSCLC): > 100 µM
TGI (HCT-116 colon): > 100 µM
TGI (SNB-75 CNS): > 100 µM
TGI (SK-MEL-5 melanoma): > 79.1 µM
TGI (NCI-H23 lung): > 100 µM
TGI (CCRF-CEM leukemia): > 100 µM
TGI (EKVX NSCLC): > 100 µM
TGI (SW-620 colon): > 100 µM
TGI (HOP-92 NSCLC): 86.9 µM
TGI (HCC-2998 colon): > 100 µM
TGI (SN12K1 renal): > 100 µM
TGI (OVCAR-3 ovarian): > 100 µM
TGI (SK-OV-3 ovarian): > 100 µM
TGI (HT29 colon): > 100 µM
TGI (A498 renal): > 100 µM
TGI (UACC-62 melanoma): > 79.1 µM
TGI (LOX IMVI melanoma): > 100 µM
TGI (OVCAR-8 ovarian): > 100 µM
TGI (K-562 leukemia): > 100 µM
TGI (MALME-3M melanoma): > 100 µM
TGI (UO-31 renal): 86.7 µM
TGI (KM12 colon): > 100 µM
TGI (HOP-18 NSCLC): > 92.5 µM
TGI (NCI-H226 lung): > 100 µM
TGI (MOLT-4 leukemia): 97.4 µM
TGI (P388 leukemia): > 100 µM
TGI (SK-MEL-2 melanoma): 64 µM
TGI (P388/ADR leukemia): > 100 µM
TGI (M19-MEL melanoma): 98 µM
TGI (NCI/ADR-RES ovarian): > 100 µM
TGI (SNB-19 CNS): > 100 µM
TGI (SF-268 CNS): > 100 µM
TGI (KM20L2 colon): > 100 µM
TGI (HL-60(TB) leukemia): > 100 µM
TGI (IGROV1 ovarian): > 93.8 µM
TGI (SF-295 CNS): > 100 µM
TGI (SNB-78 CNS): > 100 µM
TGI (OVCAR-4 ovarian): > 100 µM
TGI (RPMI-8226 leukemia): > 77 µM
TGI (UACC-257 melanoma): > 85.1 µM
TGI (HCT-15 colon): > 100 µM
TGI (NCI-H522 lung): > 100 µM
TGI (DLD-1 colon): > 100 µM
TGI (MCF7 breast): > 100 µM
TGI (COLO 205 colon): > 100 µM
TGI (SN12C renal): > 100 µM
TGI (OVCAR-5 ovarian): > 100 µM
TGI (U251 CNS): > 100 µM
TGI (SK-MEL-28 melanoma): > 100 µM
TGI (HOP-62 NSCLC): > 100 µM
TGI (RXF 393 renal): > 100 µM
